Test results: patent US7511074B2, “Tetrafluorobenzyl derivatives and pharmaceutical composition for preventing and treating acute and chronic neurodegenerative diseases in central nervous system containing the same” (AmKor Pharma, Inc., priority 2002, dated 2009)

Test system: Mouse cortical cell cultures
Test: FeCl2-induced free radical neurotoxicity in mixed cortical cell cultures (LDH assay)
Assay type: cell-based
Conditions: continuous 50 μM FeCl2; 1-30 μM; LDH 24 hr later
Experimental: (§1) Mouse cortical cell cultures (DIV 12-14) were exposed to continuously to 50 μM Fe^2+, alone or with inclusion of 0.1-100 μM 2-Hydroxy-TTBA (●) or trolox (◯), a membrane-permeable form of vitamin E). Neuronal death was analyzed 24 hr later by measuring levels of LDH released into the bathing medium, mean ±SEM (n=9-12 culture wells per condition), scaled to mean LDH efflux value 24 hr after sham wash (=0) and continuous exposure to 500 μM NMDA (=100). *, Significant difference from the vehicle control, p<0.05 using ANOVA and Student-Neuman-Keuls' test.
as §1, with “alone (♦)” for “alone”, “1-30” for “0.1-100”, “2-Hydroxy-TTS (●), 2-Hydroxy-TTA (◯), 2-Chloro-TTP (▾), 2-Ethan-TTBA (∇), 2-Propan-TTBA (▪),” for “2-Hydroxy-TTBA (●)”, “2-Cyclohexan-TTBA (□).” for “trolox (◯), a membrane-permeable form of vitamin E).”
(§2) For mixed neuron-glia culture, mouse cerebral cortices were removed from brains of the 14-16 day-old-fetal mice (E14-16), gently triturated and plated on 24 well plates (2×10^5 cells/plate) precoated with 100 μg/ml poly-D-lysine and 4 μg/ml laminine. Cultures were maintained at 37° C. in a humidified 5% CO2 atmosphere. Plating media consist of Eagles minimal essential media (MEM, Earles salts, supplied glutamine-free) supplemented with 5% horse serum, 5% fetal bovine serum, 26.5 mM bicarbonate, 2 mM glutamine, and 21 mM glucose.
(§3) After 7-8 days in vitro (DIV 7-8), 10 μM cytosine arabinofuranoside (Ara-C) was included to halt overgrowth of glia. The drug treatment was carried on DIV 12-15 cortical cell culture. Overall neuronal cell injury was assessed by measuring amount of lactate dehydrogenase (LDH) released into the bathing medium 24 hr after neurotoxic insults as previously described [Koh and Choi, J Neurosci Methods 20:83-90, 1987].
Mixed cortical cell cultures (DIV 13-15) were continuously exposed to 50 μM FeCl2, which produces hydroxyl radical via a Fenton reaction, alone or with inclusion of 2-Hydroxy-TTBA, 2-Hydroxy-TTA, 2-Hydroxy-TTS, 2-Chloro-TTP, 2-Ethan-TTBA, 2-Propan-TTBA, 2-Cyclohexan-TTBA or trolox (a vitamin E analogue) at indicated doses. Neuronal cell death was analyzed 24 hr later by LDH assay as described above. *, Significant difference from the vehicle control (FeCl2), p<0.05 using ANOVA and Student-Neuman-Keuls' test.

SMILES	neuroprotective effect compared with trolox against FeCl2-induced free radical neurotoxicity
O=S(=O)(O)c1cc(NCc2c(F)c(F)c(C(F)(F)F)c(F)c2F)ccc1O [2-Hydroxy-TTS, 2-hydroxy-5-(2,3,5,6-tetrafluoro-4-trifluoromethylbenzylamino)benzene sulfonic acid]	much stronger neuroprotective effects than trolox
CCC(=O)Oc1ccc(NCc2c(F)c(F)c(C(F)(F)F)c(F)c2F)cc1C(=O)O [2-Propan-TTBA, 2-propanoyloxy-5-(2,3,5,6-tetrafluoro-4-trifluoromethylbenzylamino)benzoic acid]	much stronger neuroprotective effects than trolox
O=C(O)c1cc(NCc2c(F)c(F)c(C(F)(F)F)c(F)c2F)ccc1OC(=O)C1CCCCC1 [2-Cyclohexan-TTBA, 2-cyclohexanecarbonyloxy-5-(2,3,5,6-tetrafluoro-4-trifluoromethylbenzylamino)benzoic acid]	much stronger neuroprotective effects than trolox
CC(=O)Oc1ccc(NCc2c(F)c(F)c(C(F)(F)F)c(F)c2F)cc1C(=O)O [2-Ethan-TTBA, 2-ethanoyloxy-5-(2,3,5,6-tetrafluoro-4-trifluoromethylbenzylamino)benzoic acid]	much stronger neuroprotective effects than trolox
NC(=O)c1cc(NCc2c(F)c(F)c(C(F)(F)F)c(F)c2F)ccc1O [2-Hydroxy-TTA, 2-hydroxy-5-(2,3,5,6-tetrafluoro-4-trifluoromethylbenzylamino)benzamide]	much stronger neuroprotective effects than trolox
Oc1ccc(NCc2c(F)c(F)c(C(F)(F)F)c(F)c2F)cc1Cl [2-Chloro-TTP, 2-chloro-4-(2,3,5,6-tetrafluoro-4-trifluoromethylbenzylamino)phenol]	much stronger neuroprotective effects than trolox

Same assay, conditions: continuous 50 μM FeCl2; LDH 24 hr later

SMILES	prevention of FeCl2-induced free radical neurotoxicity
Cc1c(C)c2c(c(C)c1O)CCC(C)(C(=O)O)O2 (stereo not drawn) [trolox, reference compound]	prevented FeCl2-induced free radical neurotoxicity in a dose-dependent manner

Test system: Mouse cortical cell cultures
Test: SNP (sodium nitroprusside) cytotoxicity in mixed cortical cell cultures (LDH assay)
Assay type: cell-based
Conditions: continuous 5 μM SNP; LDH 24 hr later
Experimental: as §1, with “continuously 5” for “continuously to 50”, “μM sodium nitroprusside (SNP),” for “μM Fe^2+,”, “alone (●)” for “alone”, “of 0.1-10 mM aspirin (◯), 1-100 μM trolox (▾), or 0.1-10” for “of 0.1-100”, “2-Hydroxy-TTBA (∇).” for “2-Hydroxy-TTBA (●) or trolox (◯), a membrane-permeable form of vitamin E).”
as §2, §3
Mixed cortical cell cultures were continuously exposed to 5 μM SNP, a nitric oxide (NO) donor, alone or with inclusion of 0.1-10 μM 2-Hydroxy-TTBA, 1-10 μM trolox or 100-10,000 μM aspirin. Neuronal cell death was analyzed 24 hr later by LDH assay. *, Significant difference from the vehicle control (SNP), p<0.05 using ANOVA and Student-Neuman-Keuls' test.

SMILES	effect on SNP toxicity
CC(=O)Oc1ccccc1C(=O)O [Aspirin, aspirin, reference compound]	did not reduce SNP cytotoxicity
Cc1c(C)c2c(c(C)c1O)CCC(C)(C(=O)O)O2 (stereo not drawn) [trolox, reference compound]	completely blocked

Test system: not given
Test: not given
Conditions: not given

SMILES	melting point [°C]
O=C(O)c1cc(NCc2c(F)c(F)c(C(F)(F)F)c(F)c2F)ccc1OC(F)(F)F [Synthesis Example 8, 5-(2,3,5,6-tetrafluoro-4-trifluoromethylbenzylamino)-2-trifluoromethoxybenzoic acid]	38
O=C(O)c1cc(NCc2c(F)c(F)c(C(F)(F)F)c(F)c2F)ccc1[N+](=O)[O-] [Synthesis Example 2, 2-nitro-5-(2,3,5,6-tetrafluoro-4-trifluoromethylbenzylamino)benzoic acid]	121
O=[N+]([O-])c1cc(NCc2c(F)c(F)c(C(F)(F)F)c(F)c2F)ccc1O [Synthesis Example 9, 2-nitro-4-(2,3,5,6-tetrafluoro-4-trifluoromethylbenzylamino)phenol]	126 to 128
O=C(O)c1cc(NCc2c(F)c(F)c(C(F)(F)F)c(F)c2F)ccc1Cl [Synthesis Example 3, 2-chloro-5-(2,3,5,6-tetrafluoro-4-trifluoromethylbenzylamino)benzoic acid]	58
O=C(O)c1cc(NCc2c(F)c(F)c(C(F)(F)F)c(F)c2F)ccc1Br [Synthesis Example 4, 2-bromo-5-(2,3,5,6-tetrafluoro-4-trifluoromethylbenzylamino)benzoic acid]	70
Cc1ccc(NCc2c(F)c(F)c(C(F)(F)F)c(F)c2F)cc1C(=O)O [Synthesis Example 6, 2-methyl-5-(2,3,5,6-tetrafluoro-4-trifluoromethylbenzylamino)benzoic acid]	84
Cc1c(F)c(F)c(CNc2ccc(O)c(C(=O)O)c2)c(F)c1F [Synthesis Example 5, 2-hydroxy-5-(2,3,5,6-tetrafluoro-4-methylbenzylamino)benzoic acid]	212
COc1ccc(NCc2c(F)c(F)c(C(F)(F)F)c(F)c2F)cc1C(=O)O [Synthesis Example 7, 2-methoxy-5-(2,3,5,6-tetrafluoro-4-trifluoromethylbenzylamino)benzoic acid]	94
COC(=O)c1cc(NCc2c(F)c(F)c(C(F)(F)F)c(F)c2F)ccc1O [Synthesis Example 13, methyl 2-hydroxy-5-(2,3,5,6-tetrafluoro-4-trifluoromethylbenzylamino)benzoate]	127
